# US10111831B2, “Chewable vehicle for mouth absorption” (TECHNOLOGIES KHLOROS INC., priority 2011, dated 2018)
# Assays:
# [1] = Liberation of riboflavin from functional gel, passive vs artificial mastication; type: physicochemical; conditions: Khlôros functional gel, 0.9% riboflavin, 10 ml H2O/gel, after 60 seconds, detection at 445 nm
# Procedure: • Material: • Khlôros functional gel (see examples I and II); • 0.9% Riboflavin; • Reactional media: 10 ml of H2O/gel; • Passive liberation of active ingredient (Riboflavin): no treatment on the gel; • Artificial mastication (active liberation): mimic the action of mastication →compression and soft shearing;
# Detection of the liberation of riboflavin and conversion in mM by the spectroscopic evaluation at 445 nm.
# [2] = Release of yohimbine from chewing gum masticated in water or artificial saliva; type: physicochemical; conditions: gum with Corynanthe yohimbe bark extract (8% yohimbine), artificially masticated 120 seconds in 10 ml, chromatography
# Procedure: • Chewing gums are prepared following example xx, containing a bark extract of Corynanthe yohimbe (containing 8% of yohimbine); • Gums are artificially masticated for 120 seconds in 10 ml of water or artificial saliva; • The quantity of released yohimbine is analysed by chromatography.
SMILES,liberation of riboflavin after artificial mastication compared to passive liberation [1],"quantity of yohimbine released, masticated in saliva versus water [2]"
"Cc1cc2nc3c(=O)[nH]c(=O)nc-3n(C[C@H](O)[C@H](O)[C@H](O)CO)c2cc1C [riboflavin, Riboflavin]",23 times,–
COC(=O)[C@@H]1[C@H]2C[C@H]3c4[nH]c5ccccc5c4CCN3C[C@@H]2CC[C@@H]1O [yohimbine],–,more than 5 time
